In the oligonucleotide strings, read from the 5' end, every base follows the letter of its sugar. An asterisk marks phosphorothioate; unmarked linkages are phosphodiester. Other units and linkages are bracketed, terminal groups are in braces. A string of capitals states the bases alone. e = 2'-O-(2-methoxyethyl) (MOE); [5mC] = 5-methylcytosine; d = 2'-deoxy (DNA)
How the values were obtained:
[1] = system: preadipocytes / differentiating adipocytes; assay: Adipocyte differentiation assay, markers taken together; assay type: cell-based, human
HepG2 cells = assay: Insulin signaling assay in HepG2 cells, marker genes taken together; assay type: cell-based, human; conditions: for expression of the IGFBP-1, PEPCK-c and follistatin marker genes / mRNA levels of the IGFBP-1 and follistatin genes: HepG2, 1 nM insulin; for expression of the IGFBP-1, PEPCK-c and follistatin marker genes: 100 nM
HuVECs = assay: Endothelial tube formation assay in HuVECs; conditions: 75 nM
Procedure: In some embodiments, HUVECs are used to measure the effects of oligomeric compounds of the invention on endothelial tube formation activity. The tube formation assay is performed using an in vitro Angiogenesis Assay Kit (Chemicon International, Temecula, Calif.).
Untreated control cells receive LIPOFECTIN™ only.
Approximately fifty hours after transfection, cells are transferred to 96-well plates coated with ECMatrix™ (Chemicon International). Under these conditions, untreated HUVECs form tube-like structures. After an overnight incubation at 37° C., treated and untreated cells are inspected by light microscopy. Tube formation in cells treated with oligomeric compounds is compared to that in untreated control cells. Individual wells are assigned discrete scores from 1 to 5 depending on the extent of tube formation. A score of 1 refers to a well with no tube formation while a score of 5 is given to wells where all cells are forming an extensive tubular network.
In one embodiment, primary human umbilical vein endothelial cells (HuVECs) were used to measure the effects of oligomeric compounds targeted to miRNAs on tube formation activity. HuVECs were routinely cultured in EBM (Clonetics Corporation, Walkersville, Md.) supplemented with SingleQuots supplements (Clonetics Corporation, Walkersville, Md.). […] HuVECs are plated at 3000 cells/well in 96-well plates. One day later, cells are transfected with oligomeric compounds. The tube formation assay is performed using an in vitro Angiogenesis Assay Kit (Chemicon International, Temecula, Calif.).
ISIS 29248 and ISIS 196103 are chimeric 5-10-52′-MOE gapmer oligonucleotides. […] All cytidine residues are 5-methylcytidines. ISIS 342672 (SEQ ID NO: 789) contains 13 mismatches with respect to the mature mir-143 miRNA, and was also used as a negative control. ISIS 342672 is a uniform 2′-MOE phosphorothioate oligomeric compound 22 nucleotides in length. All cytidine residues are 5-methylcytidines.
Oligomeric compound was mixed with LIPOFECTIN™ (Invitrogen Life Technologies, Carlsbad, Calif.) in OPTI-MEM™ (Invitrogen Life Technologies, Carlsbad, Calif.) to achieve a final concentration of 75 nM of oligomeric compound and 2.25 μg/mL LIPOFECTIN™. Before adding to cells, the oligomeric compound, LIPOFECTIN™ and OPTI-MEM™ were mixed thoroughly and incubated for 0.5 hrs. Untreated control cells received LIPOFECTIN™ only. […] Compounds targeted to miRNAs were tested in triplicate, and ISIS 29848 was tested in up to six replicates. […] 100 μL of full growth medium was added to each well. Fifty hours after transfection, cells are transferred to 96-well plates coated with ECMa-trix™ (Chemicon Inter-national). Under these conditions, untreated HuVECs form tube-like structures.

T47D cells = assay: Caspase-3 activity assay (apoptosis) in T47D cells; conditions: caspase assay, 200 nM; conclusion from Tables 9-12
PEPCK-c = PEPCK-c mRNA expression in HepG2 cells; assay type: cell-based, human; conditions: 100 nM; for reduction of PEPCK-c mRNA expression: HepG2, 1 nM insulin
adipocytes = assay: Triglyceride accumulation assay in adipocytes; assay type: cell-based, human; conditions: preadipocytes, 250 nM, day nine
leptin = assay: Leptin secretion by adipocytes (ELISA); assay type: cell-based, human; conditions: preadipocytes, 250 nM, day nine
Procedure: Leptin secretion into the medium in which adipocytes are cultured is measured by protein ELISA. On day nine post-transfection, 96-well plates are coated with a monoclonal antibody to human leptin (R&D Systems, Minneapolis, Minn.) and left at 4° C. overnight. The plates are blocked with bovine serum albumin (BSA), and a dilution of the treated adipoctye medium is incubated in the plate at room temperature for approximately 2 hours. After washing to remove unbound components, a second monoclonal antibody to human leptin (conjugated with biotin) is added. The plate is then incubated with strepavidin-conjugated horse radish peroxidase (HRP) and enzyme levels are determined by incubation with 3, 3′,5,5′-tetramethlybenzidine, which turns blue when cleaved by HRP. The OD450 is read for each well, where the dye absorbance is proportional to the leptin concentration in the cell lysate.
Leptin is also a marker for differentiated adipocytes. In the adipocyte assay, leptin secretion into the media above the differentiated adipocytes was measured by protein ELISA. Cell growth, transfection and differentiation procedures were carried out as described for the Triglyceride accumulation assay (see below). On day nine post-transfection, 96-well plates were coated with a monoclonal antibody to human leptin (R&D Systems, Minneapolis, Minn.) and left at 4° C. overnight. The plates were blocked with bovine serum albumin (BSA), and a dilution of the media was incubated in the plate at RT for 2 hours. After washing to remove unbound components, a second monoclonal antibody to human leptin (conjugated with biotin) was added. The plate was then incubated with strepavidin-conjugated horseradish peroxidase (HRP) and enzyme levels are determined by incubation with 3, 3′, 5,5′-Tetramethlybenzidine, which turns blue when cleaved by HRP. The OD450 was read for each well, where the dye absorbance is proportional to the leptin concentration in the cell lysate. Results are expressed as a percent±standard deviation relative to transfectant-only controls.

ACAGGCCGGGACAAGTGCAATA (anti-miR; chemistry not fully specified) [ISIS 327897, uniform 2′-MOE PS; targets mir-92-1]
5 markers of adipocyte differentiation ([1]; differentiating adipocytes, % of UTC (Table 75)): significant reduction in expression of 4 of the 5 markers of differentiation | expression of the IGFBP-1 and follistatin marker genes (HepG2 cells; HepG2, basal (no insulin)): increased expression of the IGFBP-1 and follistatin marker genes

CAGCCGCTGTCACACGCACAG (anti-miR; chemistry not fully specified) [ISIS 327959]
IGFBP-1 and PEPCK-c marker genes (HepG2 cells; HepG2, basal (no insulin)): increases in the IGFBP-1 and PEPCK-c marker genes | tube formation (HuVECs): suppressed tube formation

ISIS 328377: 5-10-5 2′-MOE gapmer PS; targets hypothetical miRNA-030 pri-miRNA (eT*e[5mC]*eA*e[5mC]*eT*d[5mC]*d[5mC]*dT*dA*dA*dA*dG*dG*dT*dT*e[5mC]*eA*eA*eG*eT)
expression of the IGFBP-1, PEPCK-c and follistatin marker genes (HepG2 cells): increased expression of the IGFBP-1, PEPCK-c and follistatin marker genes | apoptosis in T47D cells (T47D cells): prevent or have a protective effect from apoptosis

ISIS 328761: oligomeric compound targeting hypothetical mir-138 (antisense eG*e[5mC]*eA*eG*eG*d[5mC]*dT*dA*dA*dA*dA*dG*dA*dA*dA*eT*eA*eA*eG*e[5mC])
mRNA levels of the IGFBP-1 and follistatin genes (HepG2 cells): also reduced | reduction of PEPCK-c mRNA expression (PEPCK-c): 45% | decrease in PEPCK-c mRNA (PEPCK-c; HepG2, basal (no insulin)): 52%

ISIS 328765: oligomeric compound targeting mir-215 (antisense eG*eA*e[5mC]*eA*eA*dA*d[5mC]*dT*d[5mC]*dA*dG*d[5mC]*dT*dA*dT*eA*eT*eT*eG*eT)
mRNA levels of the IGFBP-1 and follistatin genes (HepG2 cells): also reduced | reduction of PEPCK-c mRNA expression (PEPCK-c): 27%

TAGCTGGTTGAAGGGGACCAA (anti-miR; chemistry not fully specified) [ISIS 327925]
expression of the IGFBP-1, PEPCK-c and follistatin marker genes (HepG2 cells): increased expression of the IGFBP-1, PEPCK-c and follistatin marker genes | tube formation (HuVECs): suppressed tube formation

TCACAAGTTAGGGTCTCAGGGA [ISIS 327939]
expression of the four adipocyte differentiation hallmark genes ([1]; preadipocytes, 250 nM, day nine): decrease in the expression of all four adipocyte differentiation hallmark genes | triglyceride accumulation (adipocytes): decrease in triglyeride accumulation | Leptin (secretion) (leptin): significant increase in leptin secretion | expression of the IGFBP-1, PEPCK-c and follistatin marker genes (HepG2 cells): increased expression of the IGFBP-1, PEPCK-c and follistatin marker genes

From patent US8178506B2, “Oligomeric compounds and compositions for use in modulation of small non-coding RNAs” (Regulus Therapeutics Inc., priority 2003, dated 2012)
